Data from article PMC6678097, “Machilin A Inhibits Tumor Growth and Macrophage M2 Polarization Through the Reduction of Lactic Acid” (Cancers, 2019).

Tests used:
[1] = molecular target: T1, purified recombinant LDHA (Homo sapiens, UniProt P00338); test: In vitro LDH activity assay with purified recombinant LDHA; type: biochemical
T1 construct: made in house
Experimental: A purification of recombinant LDHA was performed as described previously. LDH activity was determined by measuring the decrease of absorbance at 340 nm due to the oxidation of NADH in 20 mM HEPES-K^+, 0.05% bovine serum albumin (BSA), 20 μM NADH, and 2 mM pyruvate (Sigma-Aldrich, St. Louis, MO, USA) at a pH of 7.2 using a spectrofluorometer (Spectramax M2, Molecular Devices, San Jose, CA, USA; excitation 340 nm; emission 460 nm), as described previously. Ten nanograms of recombinant LDHA protein were used in the in vitro LDH activity assay. One microgram of total protein from cell or tissue lysates was used for intracellular or in vivo LDH assays.

[2] = tested on: HT29 cells; test: Mitochondrial ROS, MitoSOX FACS; type: cell-based, human; conditions: 24 h
Experimental: The production of mitochondrial ROS was determined by MitoSOX™ Red (Thermo Fisher Scientific, Waltham, MA, USA), respectively. Briefly, 5 μM MitoSOX™ Red was added to each cells cultured in conditioned medium and incubated at 37 °C for 10 min. The cells were then washed twice with PBS and the fluorescence intensity was analyzed using a BD FACS Canto II (BD Biosciences, San Jose, CA, USA) measuring excitation/emission at wavelength of 510/580 nm.

[3] = In vivo toxicity to liver and kidney (serum AST, ALT, creatinine, BUN); conditions: mice with allograft tumors
Experimental: LLC and CT26 cells were suspended separately in PBS (5 × 10^5 cells/100 µL PBS) and inoculated in subcutaneously on the back of 7-week-old C57BL/6 mice and BALB/c mice respectively (Orient Bio Inc., Seongnam, Korea; n = 7). One day after the inoculation with tumor cells, mice of the control group (n = 7) were intraperitoneally administrated 100 µL of PBS per day for 18 days. Each of the MA-treated mice were intraperitoneally administrated 0.02, 0.2, or 1 mg MA, respectively, in 100 µL PBS per 20 g body weight, each day for 18 days. All mice were euthanized 19 days after inoculation with the tumor cells, and the tumors were excised and weighed. Length (l) and width (w) of each tumor were measured using a caliper, and the respective volume (V) was calculated according to the formula V = [(l × w^2)/2]. Tumors were immediately removed from euthanized mice and prepared for histological examinations. To test liver and kidney toxicity of MA, at the end of the in vivo allograft experiment blood was collected from each mouse and serum was separated. Biochemical analyses of aspartate aminotransferase (AST), alanine aminotransferase (ALT), creatinine, and blood urea nitrogen (BUN) were performed using a commercial service (Green Cross Co., Yongin, Korea). […]

[4] = tested on: human liver cytochrome P450 1A1 (CYP1A1); conditions: cited from earlier work

C[C@H](Cc1ccc2c(c1)OCO2)[C@@H](C)Cc1ccc2c(c1)OCO2 [MA, bis(3,4-methylenedioxy)-8,8’-lignan]
mode of inhibition of LDHA activity ([1]; data not shown): competitive inhibition
IC50 ([1]; purified recombinant LDHA, read-out: inhibitory concentration (IC50) for LDHA activity): 84 µM
mitochondrial ROS [2]: induced mitochondrial ROS
in vivo toxicity to liver and kidney [3]: no significant toxic effect
inhibitory effect on drug metabolism [4]: selective inhibitory effect
